From patent US8338599B2, “Compounds having a potentiating effect on the activity of ethionamide and uses thereof” (priority 2006, dated 2012)
Converted amounts (≈) assume the structure as drawn.

Columns and labels:
EthR protein [1] = target: T1, EthR protein (Mycobacterium tuberculosis, UniProt P9WMC1); test: Inhibition of interaction of EthR with its target DNA sequence (BIAcore); format: binding, M. tuberculosis H37Rv; conditions: compound 3 μM, EthR 540 nM, 37° C.
Description: a) Measurement of the Activity of the Compounds on the Inhibition of Interaction of EthR with its Target DNA Sequence
The in vitro measurements of inhibition of binding of the EthR protein to its target DNA sequence were performed on a machine of BIAcore®2000 type (AB, Uppsala, Sweden).
The chips used are CM5 chips sold by the company GE Healthcare. Both the channels of a chip were activated with a solution containing 200 mM of EDC(N-ethyl-N′-(3-[…])carbodiimide) and 50 mM of NHS (N-hydroxysuccinimide). Next, streptavidin (500 ng/μl in a solution containing 10 mM of sodium acetate (pH 3.5) was injected over 12 minutes at a flow rate of 10 μl/minute. The 106-base-pair biotinylated DNA fragment corresponding to the ethA-R intergene region was deposited on one of the two channels of the chip at a rate of 200 ng/ml in order to obtain stable binding of streptavidin corresponding to 50 RU (resonance units). This DNA fragment was obtained by PCR using the chromosomal DNA of M. tuberculosis H37Rv as matrix and O-270: 5′-[…]-3′ (SEQ ID: No. 1) and O-271: 5′-biotin-[…]-3′ (SEQ ID: No. 2). The second channel was functionalized with a 113-base-pair biotinylated DNA fragment (fragment +14 to +127 of the bla gene of E. coli PCR-amplified using the following oligonucleotides: O-343: 5′-[…]-3′ (SEQ ID: No. 3) and O-344: 5′-biotin-[…]-3′ (SEQ ID: No. 4).
Measurement of the binding of the EthR protein to the immobilized DNA was performed at 37° C. in a reference buffer containing 10 mM of Tris-HCl (pH=7.5), 200 mM of NaCl, 0.1 mM of EDTA, 1 mM of DTT and 1% of DMSO at a flow rate of 20 μl/minute. The specific interaction (SI) of EthR with the 106-base-pair double-stranded DNA sequence, expressed in resonance units, corresponds to the difference in signal observed between the two channels.
For each inhibition measurement, the compounds of the invention are dissolved in the reference buffer at a concentration of 3 μM. The compounds of the invention are then incubated in the presence of the protein (540 nM) at 37° C. for 5 minutes, and each solution is then injected onto the two channels of the chip for 3 minutes at a flow rate of 20 μl/minute. The inhibition values are calculated at the end of the injection according to the following equation: […]
in which SIEthR corresponds to the value measured without ligand and SIEthR+ligand corresponds to the value measured in the presence of to ligand.

EthR protein [2] = target: T1, EthR protein; test: In vitro measurement of the IC50 (EthR/DNA binding, BIAcore); parameters: species or system M. tuberculosis H37Rv
Description: b) In Vitro Measurement of the IC50 of the Compounds of the Invention.
The in vitro measurement of this datum was performed according to the same principle as for the measurement of inhibition of the EthR/DNA binding using the BIAcore technique.
The specific interaction between EthR and the specific 106-bp DNA fragment was measured on a range of six concentrations of the compounds of the invention, this range extending from 0.11 μM to 27 μM. The IC50 values are then extrapolated from the sigmoid curves obtained.

M. bovis BCG = format: cell-based, M. bovis BCG 1173P2; conditions: from MIC of ETH alone (6 μM) and MIC of ETH with 25 μM compound
M. tuberculosis H37Rv = test: Ethionamide-potentiating effect, fluorimetric detection on Bactec MGIT 960; format: cell-based; conditions: compound 25 μM
[3] = Measurement of the solubility (PBS pH 7.4 vs methanol, LC/MS); format: physicochemical; conditions: pH 7.4, aqueous buffer, kinetic from dmso stock
Description: e) Measurement of the Solubility of the Compounds of the Invention
40 μl of a solution containing a compound of the invention at a concentration of 10 mM in DMSO were diluted in 1.960 ml of methanol, and another 40 μl were diluted in 1.960 ml of a PBS solution containing 675 mM of NaCl, 13.5 mM of KCl, 50 mM of Na2HPO4.2H2O and 10 mM of KH2PO4 at a pH of 7.4. The two solutions were stirred for 24 hours at room temperature, and then centrifuged for 5 minutes and filtered through 0.45 μm filters. 20 μl of each solution were then diluted in 118 μl of methanol and analyzed by liquid chromatography coupled to mass spectrometry (LC/MS). The solubility was determined by the ratio of the areas under the curve of the mass signal for the compound of the invention, according to the following equation: […]

T1 sequence (P9WMC1 whole entry, looked up): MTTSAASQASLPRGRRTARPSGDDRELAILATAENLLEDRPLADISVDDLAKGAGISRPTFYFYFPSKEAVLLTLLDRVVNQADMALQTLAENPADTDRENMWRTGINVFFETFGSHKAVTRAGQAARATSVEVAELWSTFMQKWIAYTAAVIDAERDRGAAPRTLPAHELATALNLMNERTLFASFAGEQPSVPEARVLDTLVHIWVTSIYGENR

Row | SMILES | inhibition at 3 µM (EthR protein [1]) | IC50 (EthR protein [2]) | Potentiation % (M. bovis BCG) | potentiation of the ethionamide activity (factor) (M. tuberculosis H37Rv) | solubility at 24 h [3] | potentiation of the ethionamide activity (factor) (M. tuberculosis H37Rv; listed as compound 22)
1 | C=CCCC(=O)N1CCC(c2nc(-c3cccs3)no2)CC1 [Compound 20, 1-[4-(3-thiophen-2-yl[1,2,4]oxadiazol-5-yl)piperid-1-yl]pent-4-en-1-one] | 53% | 1000 nM | 2500% | about 20 fold | 63.5 µg/mL (≈ 200 µM) | 
2 | N#CCC(=O)N1CCC(c2nc(-c3cccs3)no2)CC1 [Compound 22, 3-oxo-3-[4-(3-thiophen-2-yl[1,2,4]oxadiazol-5-yl)piperid-1-yl]propionitrile] | 28% | 3330 nM | 2500% | ~10 fold | 60.4 µg/mL (≈ 200 µM) | about 10 fold
